Results on two substances are retold here after article PMC5505701, “Somatostatin binds to the human amyloid β peptide and favors the formation of distinct oligomers” (eLife, 2017).

Assay [1] deals with Aβ. As to conditions: ref Maftei et al., 2012; cited from earlier work. From the text: Although initially captured at pH 8.0, a widely-used pH for interactome analyses, owed to its wide-spread use in radioimmunoprecipitation assay (RIPA) buffer formulations, the oAβ-SST14 interaction was in subsequent validation ...
For assay [2], the target named is T1, Aβ1-42 (Homo sapiens, UniProt P05067).
T1 construct: purchased Anaspec, Inc. (Fremont, CA, USA) AS-24224; host or cells: synthetic peptide
Put plainly: Western blot / silver stain detection of Aβ1-42 after incubation with SST14 or CST17. In kind it is biochemical. Conditions: 18 hr incubation, 6E10 Western blot, Aβ1-42 alone or with SST14 or CST17. The procedure: Initially, we were interested in observing the influence of incubation time on sample composition (Figure 5B).

The test system of assay [3] is tau phosphorylated at pSer202/pThr205 (AT8) and pThr231 (AT180) in primary hippocampal neurons. Put plainly: Primary hippocampal neuron tau phosphorylation assay (Western blot).
Assay [4] deals with T1, Aβ1-42. Put plainly: Negative stain electron microscopy of Aβ1-42 assemblies. In kind it is biochemical. As to conditions: 50 μM Aβ1-42 in PBS, with or without equimolar SST.
Assay [5] has as its system SST14. Put plainly: SST14-dependent ThT incorporation in presence of Aβ1-42. In kind it is biochemical, human. From the text:
Figure 4. […] (A) Workflow of ThT-based aggregation assay. (B) Representative ThT fluorescence charts using synthetic Aβ1-42 alone or in combination with SST14 or negative control AVP peptides. […] Please see legend for experimental conditions. DOI: http://dx.doi.org/10.7554/eLife.28401.008 Figure 4—figure supplement 1. […] (A) Workflow of ThT-based aggregation assay. […] (B) Representative ThT fluorescence charts monitoring SST14-dependent ThT incorporation. […] DOI: http://dx.doi.org/10.7554/eLife.28401.009 [drawing 1] Figure 4—figure supplement 2. […] (A) Workflow of amylin-dependent ThT fluorecence assay in the presence or absence of SST14. (B) Representative ThT fluorescence charts monitoring amylin-dependent ThT incorporation. […] DOI: http://dx.doi.org/10.7554/eLife.28401.010 [drawing 2]
Assay procedures were largely based on a protocol described by Sarah Linse’s group ([Hellstrand et al., 2010]). […] The subsequent plate incubation proceeded at 37°C with shaking at 700 rpm for 4 of every 5 min in a microplate reader (CLARIOstar, BMG Labtech, Guelph, ON, Canada) for overall durations specified in individual figures. ThT fluorescence was measured every 5 min at excitation and emission wavelengths of 444 nm and 485 nm, respectively.

“Also recorded” adds a separate entry of the source.

T1 sequence (P05067 672-713 limits assumed): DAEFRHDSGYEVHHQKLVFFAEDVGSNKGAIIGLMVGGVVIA

Consider “humanin: 21-24 amino acid peptide coded within the mitochondrial 16S ribosomal RNA gene”, for which the Aβ binding epitope result in assay [1] is “interacts with an Aβ binding epitope encompassing residues 17-28”.
Take amyloid β peptide 1-42 [Aβ1-42]: in assay [2], the “apparent molecular weight of HMM 6E10 signals” value is listed as 55-200 kDa. Also, in assay [3] (monomeric Aβ1-42 (0 hr) alone, 24 hr exposure), the “tau hyperphosphorylation by monomeric Aβ1-42” value is “not observed when monomeric Aβ1-42 was added to the cell culture medium alone”. Besides, the “tau hyperphosphorylation by oligomeric Aβ1-42” value in assay [3] (pre-aggregated (24 hr) Aβ1-42, 24 hr exposure, day 18 cultures, AT8 and AT180, listed as oAβ1-42) is on record as “robust tau hyperphosphorylation was observed”. For the same substance, in assay [4], the “assemblies observed by negative stain electron microscopy” value is “characteristic amyloid fibrils”. Also, the “delay of SST14-dependent ThT incorporation by monomeric Aβ1-42” value in assay [5] (1 μM monomeric Aβ1-42, 250 μM SST14) is on record as “Oligomeric, but not monomeric, Aβ1-42 interferes with SST14-dependent ThT incorporation”. Moreover, the “delay of SST14-dependent ThT incorporation by oligomeric Aβ1-42” value in assay [5] (1 μM pre-aggregated Aβ1-42, 250 μM SST14) is recorded as “reliably delayed SST14-dependent ThT incorporation by several hours; also recorded: profound delay in SST14 aggregation-dependent ThT incorporation”.
